From patent US20070148710A1, “Cpt resistant cell line” (priority 2003, published 2007) come the findings set out here.

Common to all, as to type: cell-based, human
One assay concerns SW948CPTH. The assay can be described thus: cell proliferation assay, cross-resistance to topoisomerase I and II inhibitors. The settings on record: for change in resistance of SW948CPTH cells compared to the parental cell line SW948: IC50 by cell proliferation assay (Table 3); for IC50: Homo sapiens, read-out: Sensitivity expressed as IC50. The text has this: (§1) Drug resistance to other topoisomerase I and II inhibitors was examined by determining the IC50 dose of each drug using a cell proliferation assay as shown in Table 3.

The next assay has as its system SW948. The description is as above. The note with it: SW948 parental, mean ± SD, 2-4 independent assays; for IC50: Homo sapiens, read-out: Sensitivity expressed as IC50.
Description: as §1

Assay [1] concerns SW948CPTH cells. The assay is described as follows: change of CPT-11 IC50 (clonogenic assay) by verapamil, amiloride or EIPA. As for the experimental part: (§2) 10. […] Cells were washed, trypsinized, and counted. Cell pellets were lysed with water and sonicated. […] Results were generated from three independent experiments. […] Data are expressed as mean±SD. […] Data are the mean±SD of two experiments done in triplicate.
12. […] Cells were plated on glass coverslips and cultured overnight. Intracellular pH was measured with a fluorescence spectrophotometer after cells were loaded with the pH-sensitive fluorescence dye, BCECF. The data represent the mean±SD of 60 individual cells. […] After 24 h the drugs were removed, cells washed with PBS and drug-free culture medium added to the cell cultures. Data represent the mean±SD from three assays done in triplicate with SW948CPTH cells and two assays done in triplicate for SW948CPTL cells.

Assay [2] relates to SW948CPTH cells. The assay can be described thus: intracellular pH (BCECF fluorescence). As to the method: 12. […] Cells were plated on glass coverslips and cultured overnight.
The subject of a further assay is SW948CPTL. The assay can be described thus: cell proliferation assay, cross-resistance to topoisomerase I and II inhibitors.
Description: as §1

The test system of the next assay is SW948 cell line. The assay is described as follows: SN38 IC50 determination.
The test system of another assay is SW948CPTH cell line. The assay can be described thus: SN38 IC50 determination.
Another assay deals with SW948CPTL cell line. The assay can be described thus: SN38 IC50 determination.
Assay [3] relates to SW948CPTH cells. The assay is described as follows: intracellular accumulation of CPT-11 (HPLC), effect of verapamil. The note with it: SW948CPTH; 10 μM verapamil with CPT-11 160 μM, 2 hours.
Description: as §2
(§3) Additionally, multidrug resistance can be evaluated by measuring the expression level of p-glycoprotein (p-gp) (Juliano et al Biochim Biophys Acta 11:152-162, 1976) and breast cancer resistant protein (BCRP) (Doyle et al Proc Natl Acad Sci U S A 95:15665-15670, 1998) in SW948 and the resistant SW948 cell lines (SW948CPTH and SW948CPTL). It is understood that the disclosed methods can also be used with other cell lines including other colon cancer cell lines. For example, the disclosed methods can be used with LS174T, WiDr, HT-29, SW403, DLD-1, SW480, SNU-C1, Caco-2, and COLO 205 cell lines.

A further assay has as its system SW948CPTL cells. The description is as above. The settings on record: SW948CPTL.
Description: as §2, §3

≈ marks a conversion by molar mass, not a printed value.

With `CC[C@@]1(O)C(=O)OCc2c1cc1n(c2=O)Cc2cc3cc(O)ccc3nc2-1` [10-OH-CPT], in the assay on SW948CPTH, the “change in resistance of SW948CPTH cells compared to the parental cell line SW948” value (“change in resistance of SW948CPTH cells” for short) is on record as “increased resistance”. The “Sensitivity expressed as IC50” value in the assay on SW948CPTH (SW948CPTH treated with 20 μg/ml CPT-11 for 62 days, then >22 days without CPT-11, mean ± SD) came out at 2.1 ± 1.0 µg/mL; in the assay with SW948, 0.4 ± 0.3 µg/mL.
`N=C(N)NC(=O)c1nc(Cl)c(N)nc1N` [Amiloride]: the “effect on resistance of the cells to CPT-11” value with SW948CPTH cells [1] (SW948CPTH, amiloride 300 μM with CPT-11 24 h (FIG. 8B)) was “decreased the resistance”. Also, the “effect on intracellular pH” value in the assay on SW948CPTH cells [2] is “lowered”. In addition, the “intracellular pH in the presence of amiloride” value in the assay with SW948CPTH cells [2] (from about 6.98 without amiloride (FIG. 8A)) was “about 6.85”.
For orientation: IC50 means the midpoint of a concentration-inhibition curve. For `CC[C@@]1(O)C(=O)OCc2c1cc1n(c2=O)Cc2cc3ccccc3nc2-1` [CPT], in the assay with SW948CPTH, the IC50 came out at 0.6 ± 0.6 µg/mL (≈ 1.72 µM) and the “change in resistance of SW948CPTH cells” value was “increased resistance”. Besides, in the assay with SW948, the IC50 worked out at 0.1 ± 0.1 µg/mL (≈ 0.287 µM).
As to `CCN(c1nc(N)c(C(=O)N=C(N)N)nc1Cl)C(C)C` [EIPA, 5-(N-ethyl-N-isopropyl)amiloride], the “effect on resistance of cells to CPT-11” value in the assay on SW948CPTH cells [1] (EIPA 3 or 10 μM with CPT-11 24 h, FIG. 8B covers SW948CPTH and SW948CPTL) was “decreased the resistance”.
Take `COc1cc([C@@H]2c3cc4c(cc3[C@@H](O[C@@H]3O[C@@H]5CO[C@@H](C)O[C@H]5[C@H](O)[C@H]3O)[C@H]3COC(=O)[C@H]23)OCO4)cc(OC)c1O` [Etoposide]: the IC50 with SW948CPTH was found to be 0.9 ± 0.1 µg/mL (≈ 1.53 µM); in the assay on SW948CPTL (Homo sapiens, read-out: Sensitivity expressed as IC50), 1.8 ± 0.3 µg/mL (≈ 3.06 µM); with SW948 it was 0.9 ± 0.1 µg/mL (≈ 1.53 µM). For the same compound, the “change in resistance of SW948CPTH cells” value in the assay on SW948CPTH is “no change in resistance”. Moreover, the “increase in resistance by SW948CPTL cells compared to the parental cell line SW948” value in the assay with SW948CPTL (IC50 by cell proliferation assay (Table 3)) was determined as 2 fold.
Turning to `CC1(C)CCC2=C(O1)c1ccccc1C(=O)C2=O` [Lapachone], in the assay with SW948CPTH, the IC50 worked out at 0.8 ± 0.2 µg/mL (≈ 3.3 µM) and the “change in resistance of SW948CPTH cells” value is “No change”. Also, in the assay on SW948, the IC50 is 1.1 ± 0.2 µg/mL (≈ 4.54 µM).
For `CCc1c2c(nc3ccc(O)cc13)-c1cc3c(c(=O)n1C2)COC(=O)[C@]3(O)CC` [SN38], the entries for the “SN38 IC50” value in the assay with SW948 cell line, in the assay with SW948CPTH cell line and in the assay with SW948CPTL cell line were 0.2 ± 0.01 µg/mL, 1.5 ± 0.1 µg/mL and 1.8 ± 0.2 µg/mL, respectively.
Regarding `COc1ccc(CCN(C)CCCC(C#N)(c2ccc(OC)c(OC)c2)C(C)C)cc1OC` (stereo not drawn) [Verapamil], the “effect on intracellular concentration of CPT-11” value in the assay with SW948CPTH cells [3] is reported as “increased the intracellular concentration of CPT-11 to a level similar to the SW948 parent cells”; in the assay on SW948CPTL cells (10 μM verapamil with CPT-11 160 μM, 2 hours) it was “increased”. Also, the “intracellular concentration of CPT-11 with verapamil relative to SW948 parent cells” value in the assay with SW948CPTL cells (10 μM verapamil) stood at 2.4 times.
